Reference: patent US10072005B2, “4-azaindole derivatives” (EISAI R&D MANAGEMENT CO., LTD., priority 2013, dated 2018)

Key:
male Crlj: WI rats = assay: Morris Water Maze Test in Ibotenic Acid-Induced Learning Disability Model; type: in vivo, rat; details: for Swimming time in 4th quadrant / Frequency of entry into platform area: probe trial
Description: Ibotenic acid at 5 μg/0.5 μL was injected into both basal nuclei of 8-week old male Crlj: WI rats, and a Morris water maze test was performed 10-14 days after ibotenic acid injection. It has been reported that rats in which basal forebrain was lesioned by ibotenic acid injection show learning disability in the Morris water maze test. (Pharmacopsychiat, 1999, 32, 242-247). The test is considered a model of spatial learning and memory.
Learning trials were performed twice a day at an interval of 3 hours for 4 days (8 times in total), and probe trials were performed once the day after completion of the learning trials. Each test compound was dissolved in a 0.5% methylcellulose in water and orally administered 1 hour before the first trial on each day of the learning trials and 1 hour before the trial on the day of the probe trials.
A colorless clear acrylic platform (diameter: about 12 cm, height: about 30 cm) and a gray vinyl chloride circular pool (diameter: about 148 cm, height: about 44 cm), which was filled with water (temperature: 17-18° C.) up to a height of about 32 cm so that the platform was fully immersed in water, were used as the test device. Four quadrants were prepared at the bottom of the pool, and the platform was set at the center of 1 of the 4 quadrants (about 37 cm from the center of the pool). A light bulb was placed near the quadrant with the platform as a spatial cue.
In learning trials, the animal was put into water and goal latency and swimming distance to reach the platform were measured (measurement time: 90 seconds at the longest) by a video image behavioral analysis device (Etho Vision XT, Noldus Information Technology Inc.). When an animal reached the platform within 90 seconds and stayed on the platform for 30 seconds, it was judged that the animal recognized the position of the platform, and the measurement was finished.
In probe trials, the platform was removed from the pool. The animal was put into water, and the swimming time in the quadrant where the platform had been located in the learning trials and the frequency of entry into the platform area where the platform had been located in the learning trials were measured by Etho Vision XT.
Each value was shown as an average and a standard error (n=10). The statistical significance between a control group and a vehicle group was analyzed by the independent t-test. The statistical significance between the vehicle group and each sample group was analyzed by one-way analysis of variance and then by Dunnett's multiple comparison test. The significance level was set to 5% on both sides. […] The analysis was carried out by using SAS system (SAS Institute Japan Ltd.).

mAChR M2 = mAChR M2 (Homo sapiens (Human), UniProt P08172); assay: In vitro cellular calcium flux assay, PAM, NAM and agonist modes, mAChR M2; type: cell-based
Description: (§1) Baby hamster kidney cells stably expressing human or rat mAChR M1 to M5 were utilised for primary and selectivity profiling activities. mAChR M2 and M4 cell lines also stably expressed the chimeric Gαqi5 G-protein.
(§2) Human mAChR M1, M3, M5 and rat M1 cells were grown in low glucose Dulbecco's Modified Eagle's Medium (DMEM) medium plus heat inactivated 10% fetal bovine serum (HI FBS) and 500 μg/ml hygromycin B^1. Human mAChR M2 and M4 cells were maintained as above with^2 the addition of 500 μg/ml G418 to the media. Cells were maintained in culture at 37° C./5% CO2 and passaged twice weekly by treatment with 0.05% Trypsin/EDTA detachment solution, centrifugation (200 g, 5 min) and re-suspension in fresh media. Following cell expansion, cells were cryopreserved at −80° C. by treatment with 0.05% Trypsin/EDTA detachment solution, centrifugation (200 g, 5 min) and re-suspension of the pellet in freezing media (90% HI FBS/10% DMSO^3) at 15E6 cells/ml^4.
(§3) Prior to assaying, cells were prepared by thawing at 37° C. in a water bath, centrifugation (200 g, 5 min) and re-suspension of the pellet in fresh media. 15000 cells per well were seeded in black, clear bottomed 384-well Greiner Bio-One plates in plating medium (DMEM/10% HI FBS) and incubated overnight at 37 C/5% CO2.
(§4) On the day of the assay, media was removed from each well and replaced with 50 μl^5 assay buffer (HBSS with 20 mM HEPES and 2.5 mM Probenecid) containing the calcium indicator, Calcium 4 (Molecular Devices). Cells were then incubated at 37° C./5% CO2 for 30 min and at room temperature.
(§5) Compound preparation was carried out by generation of 11-point, 1 in 3 serial dilution concentration response curves in 100% DMSO. Compound was then diluted 1 in 65^6 with assay buffer (HBSS with 20 mM HEPES and 2.5 mM Probenecid) prior to the addition of 10 ul^7 to the cells using a Tetra fluorometric imaging plate reader (Molecular Devices)^8. Compound driven increases in intracellular calcium flux was measured as an increase in fluorescence (494Ex, 516Em)^9.
(§6) Positive allosteric modulator pEC50 values and antagonist pIC50 values for each compound were then determined. […] The points of modification and the alternate reagents, concentrations or equipment employed in these examples were: ^1200 μg/ml hygromycin B; ^2G418 not added; ^3CELLBANKER 1; ^410E6; ^5 40 μl; ^6 1 in 99; ^7 20 μl; ^8FDSS6000 (Hamamatsu Photonics); ^9(480Ex, 540Em); ^10Spotfire (TIBCO).
(§7) Certain compounds were tested in PAM, NAM and agonist modes against mAChR M2, M3, M4 and M5.

mAChR M1 = mAChR M1 (Homo sapiens, UniProt P11229); assay: In vitro cellular calcium flux assay, positive allosteric modulation of mAChR M1; type: cell-based; details: BHK cells expressing mAChR M1; EC20 carbachol; Examples 76-80 and 82-89 slightly modified procedure
In short: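 Baby hamster kidney cells stably expressing human mAChR M1, loaded with Calcium 4 dye in HBSS/20 mM HEPES/2.5 mM probenecid for 30 min at 37 °C. An 11-point 1-in-3 compound dilution series was added and calcium rise read as fluorescence; positive allosteric modulator pEC50 and antagonist pIC50 derived.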

mAChR M4 = mAChR M4 (Homo sapiens (Human), UniProt P08173); assay: In vitro cellular calcium flux assay, PAM, NAM and agonist modes, mAChR M4; type: cell-based
Description: as §1, §2, §3, §4, §5, §6, §7

Sequence of mAChR M4 (P08173 whole entry): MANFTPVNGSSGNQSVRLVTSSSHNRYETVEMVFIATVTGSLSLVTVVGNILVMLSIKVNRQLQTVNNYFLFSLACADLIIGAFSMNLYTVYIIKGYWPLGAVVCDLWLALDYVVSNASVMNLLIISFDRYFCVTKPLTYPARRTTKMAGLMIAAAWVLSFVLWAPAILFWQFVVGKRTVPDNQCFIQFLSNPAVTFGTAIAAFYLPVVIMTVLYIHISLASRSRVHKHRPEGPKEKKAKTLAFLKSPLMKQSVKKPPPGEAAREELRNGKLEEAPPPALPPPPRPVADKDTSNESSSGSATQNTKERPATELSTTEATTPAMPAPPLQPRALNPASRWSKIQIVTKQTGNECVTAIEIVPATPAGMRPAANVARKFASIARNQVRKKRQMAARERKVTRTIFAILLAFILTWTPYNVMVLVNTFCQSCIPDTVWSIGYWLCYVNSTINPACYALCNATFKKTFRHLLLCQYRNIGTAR
Sequence of mAChR M2 (P08172 whole entry): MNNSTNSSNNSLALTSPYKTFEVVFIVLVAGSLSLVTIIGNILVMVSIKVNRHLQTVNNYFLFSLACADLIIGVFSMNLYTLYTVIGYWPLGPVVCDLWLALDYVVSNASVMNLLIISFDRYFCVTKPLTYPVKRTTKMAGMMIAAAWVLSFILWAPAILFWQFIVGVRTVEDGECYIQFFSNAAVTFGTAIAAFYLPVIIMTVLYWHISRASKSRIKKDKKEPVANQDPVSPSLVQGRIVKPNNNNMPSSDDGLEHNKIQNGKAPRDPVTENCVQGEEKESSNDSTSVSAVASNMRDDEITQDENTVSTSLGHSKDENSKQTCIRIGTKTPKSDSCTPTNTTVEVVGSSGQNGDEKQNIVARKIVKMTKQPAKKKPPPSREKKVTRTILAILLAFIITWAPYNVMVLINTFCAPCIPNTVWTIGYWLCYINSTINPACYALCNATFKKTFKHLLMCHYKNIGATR
Sequence of mAChR M1 (P11229 whole entry, looked up): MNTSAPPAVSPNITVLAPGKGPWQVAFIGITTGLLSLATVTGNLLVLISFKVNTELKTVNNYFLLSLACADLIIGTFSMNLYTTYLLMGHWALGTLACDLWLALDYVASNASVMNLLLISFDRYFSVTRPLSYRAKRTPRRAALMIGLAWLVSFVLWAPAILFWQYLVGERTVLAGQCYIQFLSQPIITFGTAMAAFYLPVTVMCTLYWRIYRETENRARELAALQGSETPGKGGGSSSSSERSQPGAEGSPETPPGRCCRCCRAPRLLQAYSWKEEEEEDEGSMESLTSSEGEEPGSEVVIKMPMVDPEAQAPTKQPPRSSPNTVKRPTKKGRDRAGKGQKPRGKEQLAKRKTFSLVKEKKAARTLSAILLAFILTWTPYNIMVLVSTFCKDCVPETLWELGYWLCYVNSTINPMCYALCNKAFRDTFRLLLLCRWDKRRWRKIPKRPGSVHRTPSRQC

O=C(N[C@H]1CCCC[C@@H]1O)c1cn(Cc2ccc(F)cc2)c2cccnc12 [Example 5, 1-(4-Fluorobenzyl)-N-((1S,2S)-2-hydroxycyclohexyl)-1H-pyrrolo[3,2-b]pyridine-3-carboxamide]
Goal latency (male Crlj: WI rats; Trial 1, 0.1 mg/kg p.o.): [90 ± 0.00] sec. | Swimming distance (male Crlj: WI rats; Trial 1, 0.1 mg/kg p.o.): [2152.96 ± 91.73] cm | Goal latency (male Crlj: WI rats; Trial 1, 0.3 mg/kg p.o.): [90 ± 0.00] sec. | Swimming distance (male Crlj: WI rats; Trial 1, 0.3 mg/kg p.o.): [2400.75 ± 122.49] cm | Goal latency (male Crlj: WI rats; Trial 2, 0.1 mg/kg p.o.): [90 ± 0.00] sec. | Swimming distance (male Crlj: WI rats; Trial 2, 0.1 mg/kg p.o.): [2353.99 ± 145.71] cm | Goal latency (male Crlj: WI rats; Trial 2, 0.3 mg/kg p.o.): [89.47 ± 0.53] sec. | Swimming distance (male Crlj: WI rats; Trial 2, 0.3 mg/kg p.o.): [2533.19 ± 86.87] cm | Goal latency (male Crlj: WI rats; Trial 3, 0.1 mg/kg p.o.): [78.81 ± 8.1] sec. | Swimming distance (male Crlj: WI rats; Trial 3, 0.1 mg/kg p.o.): [1884.79 ± 174.8] cm | Goal latency (male Crlj: WI rats; Trial 3, 0.3 mg/kg p.o.): [75.08 ± 7.99] sec. | Swimming distance (male Crlj: WI rats; Trial 3, 0.3 mg/kg p.o.): [1945.42 ± 189.94] cm | Goal latency (male Crlj: WI rats; Trial 4, 0.1 mg/kg p.o.): [79.59 ± 7.36] sec. | Swimming distance (male Crlj: WI rats; Trial 4, 0.1 mg/kg p.o.): [1822.32 ± 206.29] cm | Goal latency (male Crlj: WI rats; Trial 4, 0.3 mg/kg p.o.): [60.53 ± 12.15]# sec. | Swimming distance (male Crlj: WI rats; Trial 4, 0.3 mg/kg p.o.): [1592.82 ± 308.21] cm | Goal latency (male Crlj: WI rats; Trial 5, 0.1 mg/kg p.o.): [83.06 ± 4.7] sec. | Swimming distance (male Crlj: WI rats; Trial 5, 0.1 mg/kg p.o.): [1918.78 ± 132.12] cm | Goal latency (male Crlj: WI rats; Trial 5, 0.3 mg/kg p.o.): [53.99 ± 10.18]## sec. | Swimming distance (male Crlj: WI rats; Trial 5, 0.3 mg/kg p.o.): [1417.94 ± 229.44]## cm | Goal latency (male Crlj: WI rats; Trial 6, 0.1 mg/kg p.o.): [66.13 ± 12.22] sec. | Swimming distance (male Crlj: WI rats; Trial 6, 0.1 mg/kg p.o.): [1464.97 ± 308.91] cm | Goal latency (male Crlj: WI rats; Trial 6, 0.3 mg/kg p.o.): [33.09 ± 9.78]## sec. | Swimming distance (male Crlj: WI rats; Trial 6, 0.3 mg/kg p.o.): [876.2 ± 203.14]## cm | Goal latency (male Crlj: WI rats; Trial 7, 0.1 mg/kg p.o.): [76.97 ± 8.11] sec. | Swimming distance (male Crlj: WI rats; Trial 7, 0.1 mg/kg p.o.): [1839.16 ± 221.78] cm | Goal latency (male Crlj: WI rats; Trial 7, 0.3 mg/kg p.o.): [50.1 ± 10.02]## sec. | Swimming distance (male Crlj: WI rats; Trial 7, 0.3 mg/kg p.o.): [1329.27 ± 236.21]## cm | Goal latency (male Crlj: WI rats; Trial 8, 0.1 mg/kg p.o.): [67.24 ± 10.13] sec. | Swimming distance (male Crlj: WI rats; Trial 8, 0.1 mg/kg p.o.): [1492.52 ± 260.05] cm | Goal latency (male Crlj: WI rats; Trial 8, 0.3 mg/kg p.o.): [38.02 ± 10.74]## sec. | Swimming distance (male Crlj: WI rats; Trial 8, 0.3 mg/kg p.o.): [1020.57 ± 253.94]## cm | Swimming time in 4th quadrant (male Crlj: WI rats; 0-30 sec., 0.1 mg/kg p.o.): [8.90 ± 1.02]# sec. | Swimming time in 4th quadrant (male Crlj: WI rats; 0-30 sec., 0.3 mg/kg p.o.): [7.19 ± 1.11] sec. | Frequency of entry into platform area (male Crlj: WI rats; 0.1 mg/kg p.o.): [0.9 ± 0.3] | Frequency of entry into platform area (male Crlj: WI rats; 0.3 mg/kg p.o.): [1.7 ± 0.5]## | Swimming time in 4th quadrant (male Crlj: WI rats; 30-60 sec., 0.1 mg/kg p.o.): [9.41 ± 1.80]# sec. | Swimming time in 4th quadrant (male Crlj: WI rats; 30-60 sec., 0.3 mg/kg p.o.): [8.48 ± 1.25] sec. | Swimming time in 4th quadrant (male Crlj: WI rats; 60-90 sec., 0.1 mg/kg p.o.): [7.74 ± 0.85] sec. | Swimming time in 4th quadrant (male Crlj: WI rats; 60-90 sec., 0.3 mg/kg p.o.): [7.49 ± 1.37] sec. | Swimming time in 4th quadrant (male Crlj: WI rats; Total, 0.1 mg/kg p.o.): [26.05 ± 2.03]## sec. | Swimming time in 4th quadrant (male Crlj: WI rats; Total, 0.3 mg/kg p.o.): [23.16 ± 2.97] sec. | EC50 (mAChR M2): > 10 µM | pEC50 for positive allosteric modulation (mAChR M1): 6.9 | EC50 (mAChR M4): > 10 µM
